Measurements as given in patent US8802720B2, “Acylamino-substituted fused cyclopentanecarboxylic acid derivatives and their use as pharmaceuticals” (SANOFI, priority 2008, dated 2014).

Target: human Edg-2 receptor (LPA1 receptor) (Homo sapiens, UniProt Q92633)
Assay: Edg-2 receptor inhibition by FLIPR calcium fluorescence measurement (LPA-mediated calcium liberation)
Assay type: cell-based
Details: CHO cells stably overexpressing human Edg-2 receptor; LPA 18:1 100 nM; fluo-4 fluorescence; triplicate; read-out: Inhibitory concentrations IC50 for inhibition of the Edg-2 receptor
Outline: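 CHO cells stably overexpressing human Edg-2 were fluo-4 loaded and pre-incubated ~5 min with compound (≤0.3% DMSO) in HBSS/HEPES/probenecid, pH 7.5. Then LPA 18:1 at 100 nM final was added. Peak calcium fluorescence over ~3 min, baseline-corrected versus DMSO, gave % inhibition in triplicate and IC50.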

Sequence of human Edg-2 receptor (LPA1 receptor) (Q92633 whole entry): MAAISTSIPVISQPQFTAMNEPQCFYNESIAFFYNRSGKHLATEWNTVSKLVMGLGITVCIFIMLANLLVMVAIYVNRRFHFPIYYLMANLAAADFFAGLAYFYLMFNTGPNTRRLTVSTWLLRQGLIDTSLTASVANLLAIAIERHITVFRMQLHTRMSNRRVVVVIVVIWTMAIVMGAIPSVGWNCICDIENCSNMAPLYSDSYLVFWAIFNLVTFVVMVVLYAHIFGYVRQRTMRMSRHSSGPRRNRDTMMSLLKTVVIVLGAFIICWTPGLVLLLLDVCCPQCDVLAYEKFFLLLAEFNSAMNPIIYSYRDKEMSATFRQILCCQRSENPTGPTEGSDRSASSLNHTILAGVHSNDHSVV

Row | IC50 [µM] | Compound
1 | 1 to 30 | COc1ccc(C(=O)NC2(C(=O)O)Cc3ccccc3C2)cc1C(O)c1ccccc1C (stereo not shown) [Example 241, 2-[3-(Hydroxy-o-tolyl-methyl)-4-methoxy-benzoylamino]-indane-2-carboxylic acid]
2 | 0.1 to 1 | Cc1cccc(CCNc2cc(C(=O)NC3(C(=O)O)Cc4ccccc4C3)ccc2O)c1 [Example 179, 2-[4-Hydroxy-3-(2-m-tolyl-ethylamino)-benzoylamino]-indane-2-carboxylic acid]
3 | < 0.1 | COc1ccc(C(=O)NC2(C(=O)O)Cc3ccccc3C2)cc1-c1ccc(Cl)c(Cl)c1 [Example 292]
4 | 1 to 30 | COc1ccc(C(=O)NC2(C(=O)O)Cc3ccccc3C2)cc1OCc1c(C)noc1C [Example 88]
5 | < 0.1 | COc1ccc(C(=O)NC2(C(=O)O)Cc3ccccc3C2)cc1OCC(F)(F)c1ccccc1 [Example 213, 2-[3-(2,2-Difluoro-2-phenyl-ethoxy)-4-methoxy-benzoylamino]-indane-2-carboxylic acid]
6 | 1 to 30 | COc1ccc(C(=O)NC2(C(=O)O)Cc3ccccc3C2)cc1OS(=O)(=O)c1ccccc1 [Example 109, 2-(3-Benzenesulfonyloxy-4-methoxy-benzoylamino)-indane-2-carboxylic acid]
7 | < 0.1 | COc1ccc(C(=O)NC2(C(=O)O)Cc3ccsc3C2)cc1OCCc1cccc(C)c1 (stereo not shown) [Example 99, 5-[4-Methoxy-3-(2-m-tolyl-ethoxy)-benzoylamino]-5,6-dihydro-4H-cyclopenta[b]thiophene-5-carboxylic acid]
8 | < 0.1 | CCCOc1cccc(-c2cc(C(=O)NC3(C(=O)O)Cc4ccccc4C3)ccc2OC)c1 [Example 318]
9 | 1 to 30 | COc1ccc(C(=O)NC2(C(=O)O)Cc3ccccc3C2)cc1-c1cccc(NC(=O)C(C)C)c1 [Example 350]
10 | < 0.1 | COc1ncc(C(=O)NC2(C(=O)O)Cc3ccccc3C2)cc1OCCc1cc(C)ccc1F [Example 274, 2-({5-[2-(2-Fluoro-5-methyl-phenyl)-ethoxy]-6-methoxy-pyridine-3-carbonyl}-amino)-indane-2-carboxylic acid]
11 | 1 to 30 | COc1cc([N+](=O)[O-])c(C(=O)NC2(C(=O)O)Cc3ccccc3C2)cc1OCCc1cccc(Cl)c1 [Example 103, 2-{5-[2-(3-Chloro-phenyl)-ethoxy]-4-methoxy-2-nitro-benzoylamino}-indane-2-carboxylic acid]
12 | < 0.1 | COc1ccc(C(=O)NC2(C(=O)O)Cc3ccccc3C2)cc1OCCc1cccc(F)c1 [Example 131]
13 | 1 to 30 | COc1ccc(C(=O)NC2(C(=O)O)Cc3ccccc3C2)cc1OCCc1ccc(C)cc1 [Example 135]
14 | < 0.1 | COc1ncc(C(=O)NC2(C(=O)O)Cc3ccccc3C2)cc1-c1cccc(OC(F)(F)F)c1 [Example 234]
15 | 1 to 30 | COc1ccc(C(=O)NC2(C(=O)O)Cc3ccccc3C2)cc1OCCc1cccc(C(F)(F)F)c1F [Example 155]
16 | < 0.1 | COc1ccc(C(=O)NC2(C(=O)O)Cc3ccccc3C2)cc1-c1cc(Cl)ccc1Cl [Example 303]
17 | 1 to 30 | COc1ccc(C(=O)NC2(C(=O)O)Cc3ccccc3C2)cc1OCCC(C)C [Example 36]
18 | < 0.1 | Cc1cccc(CCOc2cc(C(=O)NC3(C(=O)O)Cc4ccccc4C3)ccc2OCc2ccccc2)c1 [Example 253, 2-[4-Benzyloxy-3-(2-m-tolyl-ethoxy)-benzoylamino]-indane-2-carboxylic acid]
19 | < 0.1 | COc1ccc(C(=O)NC2(C(=O)O)Cc3ccccc3C2)cc1-c1cc(Cl)ccc1C(F)(F)F [Example 351]
20 | 0.1 to 1 | CCS(=O)(=O)c1cccc(-c2cc(C(=O)NC3(C(=O)O)Cc4ccccc4C3)cnc2OC)c1 [Example 237, 2-{[5-(3-Ethanesulfonyl-phenyl)-6-methoxy-pyridine-3-carbonyl]-amino}-indane-2-carboxylic acid]
21 | 1 to 30 | CCn1cc(COc2cc(C(=O)NC3(C(=O)O)Cc4ccccc4C3)ccc2OC)cn1 [Example 71]
22 | < 0.1 | COc1ccc(C(=O)NC2(C(=O)O)Cc3ccccc3C2)cc1OCCc1cccc(SC(F)(F)F)c1 [Example 19]
23 | < 0.1 | COc1ccc(C(=O)NC2(C(=O)O)Cc3ccccc3C2)cc1-c1cc(C(F)(F)F)ccc1F [Example 320]
24 | 1 to 30 | COc1ccc(C(=O)NC2(C(=O)O)Cc3ccccc3C2)cc1OCCCCc1ccccc1 [Example 34]
25 | < 0.1 | Cc1cccc(CCOc2cc(C(=O)NC3(C(=O)O)Cc4ccccc4C3)ccc2OCCO)c1 [Example 270, 2-[4-(2-Hydroxy-ethoxy)-3-(2-m-tolyl-ethoxy)-benzoylamino]-indane-2-carboxylic acid]
26 | < 0.1 | COc1ccc(C(=O)NC2(C(=O)O)Cc3ccccc3C2)cc1-c1cccc(NS(=O)(=O)N(C)C)c1 [Example 203]
27 | < 0.1 | O=C(NC1(C(=O)O)Cc2ccccc2C1)c1ccc(C(F)(F)F)c(OCCc2cc(F)ccc2F)c1 [Example 188]
28 | 1 to 30 | COc1ccc(C(=O)NC2(C(=O)O)Cc3ccccc3C2)cc1OCC1CC1C (stereo not shown) [Example 82]

Row | IC50 [µM] | Compound
29 | 1 to 30 | CC[C@H](COc1cc(C(=O)NC2(C(=O)O)Cc3ccccc3C2)ccc1OC)N1Cc2ccccc2C1 [Example 83]
30 | 0.1 to 1 | Cc1cccc(CCOc2cc(C(=O)NC3(C(=O)O)Cc4ccccc4C3)ccc2OCC(=O)O)c1 [Example 271, 2-[4-Carboxymethoxy-3-(2-m-tolyl-ethoxy)-benzoylamino]-indane-2-carboxylic acid]
31 | < 0.1 | COc1ccc(C(=O)NC2(C(=O)O)Cc3ccccc3C2)cc1OCCc1cccc(Cl)c1 [Example 132]
32 | < 0.1 | COc1ccc(C(=O)NC2(C(=O)O)Cc3ccccc3C2)cc1-c1cc(C)c(OC)c(C)c1 [Example 294]
33 | 1 to 30 | COc1ccc(C(=O)NC2(C(=O)O)Cc3ccccc3C2)cc1OCCC1CCCC(C)C1 (stereo not shown) [Example 278, 2-{4-Methoxy-3-[2-(3-methyl-cyclohexyl)-ethoxy]-benzoylamino}-indane-2-carboxylic acid]
34 | < 0.1 | COc1ccc(C(=O)NC2(C(=O)O)Cc3ccccc3C2)cc1-c1cccc(SC)c1 [Example 301]
35 | < 0.1 | COc1ccc(C(=O)NC2(C(=O)O)Cc3ccccc3C2)cc1OCCc1cc(Cl)ccc1Cl [Example 352]
36 | < 0.1 | COc1ncc(C(=O)NC2(C(=O)O)Cc3ccccc3C2)cc1-c1cc(F)c(F)c(F)c1 [Example 229]
37 | 1 to 30 | COc1c(OCCc2cccc(C)c2)cc(C(=O)NC2(C(=O)O)Cc3ccccc3C2)cc1[N+](=O)[O-] [Example 107, 2-[4-Methoxy-3-nitro-5-(2-m-tolyl-ethoxy)-benzoylamino]-indane-2-carboxylic acid]
38 | 1 to 30 | COc1ccc(C(=O)NC2(C(=O)O)Cc3ccccc3C2)cc1SCc1ccccc1 [Example 182, 2-(3-Benzylsulfanyl-4-methoxy-benzoylamino)-indane-2-carboxylic acid]
39 | 1 to 30 | COc1ccc(C(=O)NC2(C(=O)O)Cc3ccccc3C2)cc1OS(=O)(=O)c1ccc(C)cc1 [Example 110]
40 | 0.1 to 1 | CCOc1ccc(-c2cc(C(=O)NC3(C(=O)O)Cc4ccccc4C3)ccc2OC)cc1C [Example 340]
41 | < 0.1 | COc1ccc(C(=O)NC2(C(=O)O)Cc3ccccc3C2)cc1-c1cccc(C(C)C)c1 [Example 196, 2-[(3′-Isopropyl-6-methoxy-biphenyl-3-carbonyl)-amino]-indane-2-carboxylic acid]
42 | 0.1 to 1 | Cc1cccc(CCOc2cc(C(=O)NC3(C(=O)O)Cc4ccccc4C3)ccc2C(C)O)c1 (stereo not shown) [Example 9, 2-[4-(1-Hydroxy-ethyl)-3-(2-m-tolyl-ethoxy)-benzoylamino]-indane-2-carboxylic acid]
43 | < 0.1 | COc1ncc(C(=O)NC2(C(=O)O)Cc3ccccc3C2)cc1-c1cccc(C(F)(F)F)c1F [Example 230]
44 | 1 to 30 | COc1ccc(C(=O)NC2(C(=O)O)Cc3ccccc3C2)cc1OCCc1ccccc1C(F)(F)F [Example 47]
45 | 0.1 to 1 | COc1ccc(C(=O)NC2(C(=O)O)Cc3ccccc3C2)cc1-c1ccc(Cl)c(C(F)(F)F)c1 [Example 310]
46 | < 0.1 | COc1ccc(C(=O)NC2(C(=O)O)Cc3ccccc3C2)cc1OCCc1cc(Cl)ccc1F [Example 193, 2-{3-[2-(5-Chloro-2-fluoro-phenyl)-ethoxy]-4-methoxy-benzoylamino}-indane-2-carboxylic acid]
47 | 0.1 to 1 | COc1ccc(C(=O)NC2(C(=O)O)Cc3ccccc3C2)cc1CCCc1ccccc1 [Example 169, 2-[4-Methoxy-3-(3-phenyl-propyl)-benzoylamino]-indane-2-carboxylic acid]
48 | < 0.1 | COc1c(F)cc(C(=O)NC2(C(=O)O)Cc3ccccc3C2)cc1OCCc1cccc(CCO)c1 [Example 276, 2-(3-Fluoro-5-{2-[3-(2-hydroxy-ethyl)-phenyl]-ethoxy}-4-methoxy-benzoylamino)-indane-2-carboxylic acid]
49 | 0.1 to 1 | COc1ccc(C(=O)N(C)C2(C(=O)O)Cc3ccccc3C2)cc1OCCc1cccc(C)c1 [Example 108, 2-{[4-Methoxy-3-(2-m-tolyl-ethoxy)-benzoyl]-methyl-amino}-indane-2-carboxylic acid]
50 | 1 to 30 | COc1ccc(C(=O)NC2(C(=O)O)Cc3ccccc3C2)cc1OCc1ccc(-n2ccnc2)cc1 [Example 73]
51 | 0.1 to 1 | COc1cc(C(=O)NC2(C(=O)O)Cc3ccccc3C2)ccc1OCCc1cccc(C)c1 [Example 252, 2-[3-Methoxy-4-(2-m-tolyl-ethoxy)-benzoylamino]-indane-2-carboxylic acid]
52 | < 0.1 | COc1ccc(C(=O)NC2(C(=O)O)Cc3ccccc3C2)cc1-c1cccc(Cl)c1 [Example 198]
53 | < 0.1 | COc1ncc(C(=O)NC2(C(=O)O)Cc3ccccc3C2)cc1-c1cccc(Cl)c1Cl [Example 228]
54 | < 0.1 | Cc1cccc(CCOc2cc(C(=O)NC3(C(=O)O)Cc4ccccc4C3)ccc2OCC2CCOC2)c1 (stereo not shown) [Example 258]
55 | < 0.1 | COCCOc1ccc(C(=O)NC2(C(=O)O)Cc3ccccc3C2)cc1OCCc1cccc(C)c1 [Example 256]
